Our source for the IC50 values is patent US20250129088A1, “CEREBLON E3 UBIQUITIN LIGASE INHIBITOR” (Gan & Lee Pharmaceuticals Co., Ltd., priority 2022, published 2025).

Format in all cases: cell-based
The subject of one assay is LNCaP FGC cells. Description: LNCaP FGC cell proliferation inhibition, CCK-8. Particulars: Homo sapiens, 96 h, 4 days. From the text:
The complete medium required for LNCaP FGC cells is RPMI 1640 (ATCC, Product number: 30-2001) basal medium containing 10% fetal calf serum. […] Cell viability was detected using the CCK-8 kit (Beyotime, Product number: C0040) according to the manufacturer's instructions.

In a further assay the test system is VCaP cells. The assay can be described thus: VCaP cell proliferation inhibition, CCK-8. Particulars: Homo sapiens, 168 h, 7 days. From the text: The complete medium required for VCaP cells is DMEM high glucose (Gibco, Product number: 11995-065) basal medium containing 10% fetal bovine serum. […] Cell viability was detected using the CCK-8 kit (Beyotime, Product number: C0040) according to the manufacturer's instructions.

A further assay relates to MV-4-11 cells. The assay can be described thus: MV-4-11 cell proliferation inhibition, CCK-8. Particulars: Homo sapiens, MV4-11, 96 h, MV-4-11, 4 days. On the procedure: The complete medium required for MV-4-11 cells is IMDM (ATCC, Product number: 30-2005) basal medium containing 10% fetal bovine serum. MV-4-11 cells were seeded in a 96-well plate at a density of 7,500 cells/well, and different concentrations of the compound of the present invention and positive control samples Alisertib (source: Bide Pharmaceuticals), Palbociclib (source: Bide Pharmaceuticals), Ibrutinib (source Bide Pharmaceuticals) treated cells. The cells were incubated in a 37° C., 5% CO2 cell incubator for 4 days. Cell viability was detected using the CCK-8 kit (Beyotime, Product number: C0040) according to the manufacturer's instructions. According to the inhibition rate, GraphPad Prism software was used to calculate the IC50 value of each compound for 4 days, and the results are shown in Table 6-8.

Setting [1] is: Table 6, positive control Alisertib.
Where [2] appears, read: Table 7, positive control Palbociclib.

For `N#Cc1ccc(O[C@H]2CC[C@H](NC(=O)c3ccc(N4CCC5(CC4)CC(N4CCC6(CC4)COc4cc7c(cc46)C(=O)N(C4CCC(=O)NC4=O)C7=O)C5)nn3)CC2)cc1Cl` (stereo partly drawn) [PROTAC 63], the figures for the IC50 with LNCaP FGC cells and with VCaP cells were 170 nM and 51 nM, respectively.

`CC1(C)C(=O)N(c2ccc(C#N)c(C(F)(F)F)c2)C(=S)N1c1ccc(C(=O)N2CCC(CN3CCC4(CCc5cc6c(cc5O4)CN(C4CCC(=O)NC4=O)C6=O)CC3)CC2)c(F)c1` (stereo not drawn) [PROTAC 72]: the figures for the 50% inhibitory concentration (IC50) in the assay on LNCaP FGC cells and in the assay with VCaP cells were 5340 nM and 7400 nM, respectively.

As to `COc1cc(Nc2ncc3c(n2)-c2ccc(Cl)cc2C(c2c(F)cccc2OC)=NC3)ccc1C(=O)NCCOCCC(=O)N1CC2(CCc3cc4c(cc3O2)C(=O)N(C2CCC(=O)NC2=O)C4=O)C1` (stereo not drawn) [PROTAC 8, 4-((9-chloro-7-(2-fluoro-6-methoxyphenyl)-5H-benzo[c]pyrimido[4,5-e]azepine-2-yl)amino)-N-(2-(3-(7′-(2,6-dioxopiperidin-3-yl)-6′,8′-dioxo-4′,6′,7′,8′-tetrahydro-3′H-spiro[azetidine-3,2′-pyrano[2,3-f]isoindol]-1-yl)-3-oxopropoxy)ethylbase)-2-methoxybenzamide], in the assay on MV-4-11 cells (setting [1]), the IC50 came out at 380 nM.

In the case of `N#Cc1ccc(O[C@H]2CC[C@H](NC(=O)c3ccc(N4CC(N5CCC6(CC5)COc5cc7c(cc5C6)C(=O)N(C5CCC(=O)NC5=O)C7=O)C4)nn3)CC2)cc1Cl` (stereo partly drawn) [PROTAC 64, N-((1r,4r)-4-(3-chloro-4-cyanophenoxy)cyclohexyl)-6-(3-(7′-(2,6-dioxopiperidin-3-yl)-6′,8′-dioxo-4′,6′,7′,8′-tetrahydro-2′H-spiro[piperidine-4,3′-pyran[2,3-f]isoindole]-1-yl)azetidin-1-yl]pyridazine-3-carboxamide], the IC50 in the assay on LNCaP FGC cells stood at 130 nM; with VCaP cells, 960 nM.

In turn, `CC(=O)c1c(C)c2cnc(Nc3ccc(N4CCNCC4)cn3)nc2n(C2CCCC2)c1=O` [Palbociclib, reference compound] returned an IC50 with MV-4-11 cells (setting [2]) of 2090 nM.

Take `CC1(C)C(=O)N(c2ccc(C#N)c(C(F)(F)F)c2)C(=S)N1c1ccc(C(=O)N2CC(CN3CCC4(CCc5cc6c(cc5O4)C(=O)N(C4CCC(=O)NC4=O)C6=O)CC3)C2)c(F)c1` (stereo not drawn) [PROTAC 71]: half-maximal inhibition in the assay on VCaP cells (IC50) required 4570 nM.

Consider `COc1cc(Nc2ncc3c(n2)-c2ccc(Cl)cc2C(c2c(F)cccc2OC)=NC3)ccc1C(=O)N1CCC2(CC1)COc1cc3c(cc1O2)CN(C1CCC(=O)NC1=O)C3=O` (stereo not drawn) [PROTAC 2, 3-(1-(4-((9-chloro-7-(2-fluoro-6-methoxyphenyl)-5H-benzo[c]pyrimido[4,5-e]azepine-2-yl)amino)-2-methoxybenzoyl)-6′-oxo-6′,8′-dihydro-3′H,7′H-spiro[piperidine-4,2′-[1,4]dioxino[2,3-f]isoindole]-7′-yl)piperidine-2,6-dione], for which, in the assay on MV-4-11 cells (setting [1]), the concentration for half-maximal inhibition (IC50) came out at 81 nM.

In the assay on VCaP cells, `CC1(C)C(=O)N(c2ccc(C#N)c(C(F)(F)F)c2)C(=S)N1c1ccc(C(=O)N2CC(N3CCC4(CC3)COc3cc5c(cc34)C(=O)N(C3CCC(=O)NC3=O)C5=O)C2)c(F)c1` (stereo not drawn) [PROTAC 81, 4-(3-(4-(3-(6-(2,6-dioxopiperidin-3-yl)-5,7-dioxo-6,7-dihydro-2H,5H-spiro[furo[2,3-f]isoindole-3,4′-piperidin]-1′-yl)azetidine-1-carbonyl)-3-fluorophenyl)-4,4-dimethyl-5-oxo-2-thioimidazolidin-1-yl)-2-(trifluoromethyl)benzonitrile] yielded an IC50 of 9510 nM.

In the assay with VCaP cells, `CC1(C)C(=O)N(c2ccc(C#N)c(C(F)(F)F)c2)C(=S)N1c1ccc(C(=O)N2CCC(F)(CN3CCC4(CCc5cc6c(cc5O4)C(=O)N(C4CCC(=O)NC4=O)C6=O)CC3)CC2)c(F)c1` (stereo not drawn) [PROTAC 82] returned a half-inhibitory concentration (IC50) of 1300 nM.

For `COc1cc(Nc2ncc3c(n2)-c2ccc(Cl)cc2C(c2c(F)cccc2OC)=NC3)ccc1C(=O)NCCOCCC(=O)N1CCC2(CCc3cc4c(cc3O2)C(=O)N(C2CCC(=O)NC2=O)C4=O)CC1` (stereo not drawn) [PROTAC 5, 4-((9-chloro-7-(2-fluoro-6-methoxyphenyl)-5H-benzo[c]pyrimido[4,5-e]azepine-2-yl)amino)-N-(2-(3-(7′-(2,6-dioxopiperidin-3-yl)-6′,8′-dioxo-4′,6′,7′,8′-tetrahydro-3′H-spiro[piperidine-4,2′-pyrano[2,3-f]isoindol]-1-yl)-3-oxopropoxy)ethyl)-2-methoxybenzamide], the IC50 in the assay with MV-4-11 cells (setting [1]) was found to be 420 nM.

`COc1cc(Nc2ncc3c(n2)-c2ccc(Cl)cc2C(c2c(F)cccc2OC)=NC3)ccc1C(=O)NCCOCCC(=O)N1CCC2(CC1)COc1cc3c(cc1C2)C(=O)N(C1CCC(=O)NC1=O)C3=O` (stereo not drawn) [PROTAC 6, 4-((9-chloro-7-(2-fluoro-6-methoxyphenyl)-5H-benzo[c]pyrimido[4,5-e]azepine-2-yl)amino)-N-(2-(3-(7′-(2,6-dioxopiperidin-3-yl)-6′,8′-dioxo-4′,6′,7′,8′-tetrahydro-2′H-spiro[piperidine-4,3′-pyrano[2,3-f]isoindol]-1-yl)-3-oxopropoxy)ethyl)-2-methoxybenzamide] had an IC50 with MV-4-11 cells (setting [1]) of 320 nM. This IC50 and that of the molecule before are within 1.5-fold of each other.

`CC1(C)C(=O)N(c2ccc(C#N)c(C(F)(F)F)c2)C(=S)N1c1ccc(C(=O)N2CC3(CC(N4CCC5(CC4)COc4cc6c(cc45)C(=O)N(C4CCC(=O)NC4=O)C6=O)C3)C2)c(F)c1` (stereo not drawn) [PROTAC 79, 4-(3-(4-(6-(6-(2,6-dioxopiperidin-3-yl)-5,7-dioxo-6,7-dihydro-2H,5H-spiro[furo[2,3-f]isoindole-3,4′-piperidin]-1′-yl)-2-azaspiro[3.3]heptane-2-carbonyl)-3-fluorophenyl)-4,4-dimethyl-5-oxo-2-thioimidazolidin-1-yl)-2-(trifluoromethyl)benzonitrile] registered an IC50 with VCaP cells of 4090 nM.

As for `CC1(C)C(=O)N(c2ccc(C#N)c(C(F)(F)F)c2)C(=S)N1c1ccc(C(=O)N2CCC(CN3CCC4(CCc5cc6c(cc5O4)C(=O)N(C4CCC(=O)NC4=O)C6=O)CC3)CC2)c(F)c1` (stereo not drawn) [PROTAC 84], the IC50 in the assay on VCaP cells turned out to be 3800 nM.

As for `CC(=O)c1c(C)c2cnc(Nc3ccc(N4CCN(CCOCCC(=O)N5CCC6(CCc7cc8c(cc7O6)C(=O)N(C6CCC(=O)NC6=O)C8=O)CC5)CC4)cn3)nc2n(C2CCCC2)c1=O` (stereo not drawn) [PROTAC 38, 1-(3-(2-(4-(6-((6-acetyl-8-cyclopentyl-5-methyl-7-oxo-7,8-dihydropyridone[2,3-d]pyrimidin-2-yl)amino)pyridin-3-yl)piperazin-1-yl)ethoxy)propionyl)-7′-(2,6-dioxopiperidin-3-yl)-3′,4′-dihydro-6′H-spiro[piperidine-4,2′-pyrano[2,3-f]isoindole]-6′,8′(7′H)-dione], the IC50 in the assay on MV-4-11 cells (setting [2]) is 5030 nM.

Molecule `CC1(C)C(=O)N(c2ccc(C#N)c(C(F)(F)F)c2)C(=S)N1c1ccc(C(=O)N2CCC(N3CCC4(CC3)COc3cc5c(cc3C4)C(=O)N(C3CCC(=O)NC3=O)C5=O)CC2)c(F)c1` (stereo not drawn) [PROTAC 78, 4-(3-(4-(4-(7′-(2,6-dioxopiperidin-3-yl)-6′,8′-dioxo-4′,6′,7′,8′-tetrahydro-2′H-spiro[piperidine-4,3′-pyrano[2,3-f]isoindol]-1-yl)piperidine-1-carbonyl)-3-fluorophenyl)-4,4-dimethyl-5-oxo-2-thioimidazolidin-1-yl)-2-(trifluoromethyl)benzonitrile] showed a half-inhibitory concentration (IC50) in the assay on VCaP cells of 2700 nM. This counts as single-digit micromolar.
